Results from ChEMBL document CHEMBL1150071, “Konbamidin, a new indole alkaloid from the Okinawan marine sponge Ircinia sp” (J Nat Prod, 1994).
Converted amounts (≈) assume the structure as drawn.

System: HeLa
Assay: Cytotoxicity against human HeLa cells
Format: functional, cell-based

`O=C(O)CN[C@H](Cc1c[nH]c2ccccc12)C(=O)O` [KONBAMIDIN] was tested, and the IC50 was 5.4 µg/mL (≈ 20.6 µM).
